Values after ≈ are worked out from the molar mass of the structure shown.
Assays:
[1] = Cytotoxicity against human PC3 cells assessed as inhibition of cell viability at 25 uM after 48 hrs by MTT assay relative to control; format: functional; settings: PC-3, 48 h
A549 = assay: Cytotoxicity against human A549 cells assessed as inhibition of cell viability at 25 uM after 48 hrs by MTT assay relative to control; format: functional; settings: A549, 48 h
[2] = Cytotoxicity against HEK293T cells assessed as inhibition of cell viability at 25 uM after 48 hrs by MTT assay relative to control; format: cell-based, HEK-293T; settings: human, read-out: INH
[3] = Antioxidant activity assessed as DPPH free radical scavenging activity incubated for 30 mins in dark condition by spectrophotometric method; format: physicochemical
[4] = Cytotoxicity against human PC3 cells assessed as inhibition of cell viability after 48 hrs by MTT assay; format: functional, cell-based; settings: PC-3, 48 h
[5] = Cytotoxicity against HEK293T cells assessed as inhibition of cell viability after 48 hrs by MTT assay; format: cell-based; settings: Homo sapiens, HEK-293T

| SMILES | inhibition at 25 µM [1] [%] | inhibition at 25 µM (A549) [%] | cytotoxicity at 48 h, 25 µM [2] [%] | IC50 [3] [µg/mL] | IC50 [4] [nM] | IC50 [5] [nM] |
| --- | --- | --- | --- | --- | --- | --- |
| CC1=NN(c2ccccc2)C(=O)C1 [EDARAVONE] | 1.43 | 19.2 | 2.4 | 54.4 (≈ 312 µM) | – | – |
| COc1cc(C)nn1-c1ccccc1 | 5.91 | 55.8 | 23 | 49.18 (≈ 261 µM) | – | – |
| COc1cccc2c1C(=O)c1c(O)c3c(c(O)c1C2=O)C[C@@](O)(C(=O)CO)C[C@@H]3O[C@H]1C[C@H](N)[C@H](O)[C@H](C)O1 [DOXORUBICIN] | – | – | – | – | 2100 | 1200 |
| COc1c(C(=O)O)c(C)nn1-c1ccccc1 | 3.19 | 22.1 | 12.1 | 16.27 (≈ 70.1 µM) | – | – |
| COCc1ccccc1-c1c(C)nn(-c2ccccc2)c1OC | 36 | 80.5 | 56.5 | 20.05 (≈ 65 µM) | – | – |
| COc1c(-c2ccsc2)c(C)nn1-c1ccccc1 | 36.6 | 40 | 22.2 | 30.08 (≈ 111 µM) | – | – |
| COc1c(C(=O)NC(C)c2ccccc2)c(C)nn1-c1ccccc1 (stereo not drawn) | 29.7 | 52.7 | 31.8 | 26.98 (≈ 80.4 µM) | – | – |
| COc1c(-c2ccc(C#N)cc2)c(C)nn1-c1ccccc1 | 30.2 | 54.7 | 57.8 | 41.98 (≈ 145 µM) | – | – |
| COc1c(C(=O)NCc2ccc(Cl)cc2)c(C)nn1-c1ccccc1 | 45.8 | 87 | 49.4 | 16.07 (≈ 45.2 µM) | – | – |
| COc1c(C(=O)NCc2ccccc2)c(C)nn1-c1ccccc1 | 8.71 | 46.7 | 22.2 | 23.63 (≈ 73.5 µM) | – | – |
| COc1ccc(-c2c(C)nn(-c3ccccc3)c2OC)c(OC)c1 | 33 | 74.7 | 48.1 | 38.99 (≈ 120 µM) | – | – |
| COc1c(-c2ccc(O)cc2)c(C)nn1-c1ccccc1 | 4.9 | 55.9 | 5.58 | 37.03 (≈ 132 µM) | – | – |
| COc1ccc(-c2c(C)nn(-c3ccccc3)c2OC)cc1 | 24.3 | 70.7 | 46.3 | 24.98 (≈ 84.9 µM) | – | – |
| COc1c(-c2ccc(F)cc2)c(C)nn1-c1ccccc1 | 46.3 | 63.9 | 40.9 | 35.97 (≈ 127 µM) | – | – |
| COc1c(-c2cccc(C)c2)c(C)nn1-c1ccccc1 | 59.3 | 85.9 | 70.5 | 26.4 (≈ 94.8 µM) | – | – |
| COc1c(-c2ccccc2)c(C)nn1-c1ccccc1 | 16.2 | 65.7 | 28.2 | 32.2 (≈ 122 µM) | – | – |
| COc1c(-c2ccc(C)cc2)c(C)nn1-c1ccccc1 | 18.5 | 44 | 19.7 | 18.6 (≈ 66.8 µM) | – | – |
| COc1ccc(CNC(=O)c2c(C)nn(-c3ccccc3)c2OC)cc1 | 34.6 | 60.9 | 44.3 | 28.42 (≈ 80.9 µM) | – | – |
| COc1c(-c2ccc3ccccc3c2)c(C)nn1-c1ccccc1 | 27.6 | 71 | 53.6 | 53.56 (≈ 170 µM) | – | – |
| COc1c(Br)c(C)nn1-c1ccccc1 | 6.38 | 30.8 | 5.96 | 36.96 (≈ 138 µM) | – | – |
| COc1c(-c2csc3ccccc23)c(C)nn1-c1ccccc1 | 32.4 | 73.5 | 55 | 50.67 (≈ 158 µM) | – | – |
| O=C1O[C@H]([C@@H](O)CO)C(O)=C1O [ASCORBIC ACID] | – | – | – | 8.09 (≈ 45.9 µM) | – | – |

Reference: ChEMBL document CHEMBL3792344, “Synthesis, molecular properties prediction and anticancer, antioxidant evaluation of new edaravone derivatives” (Bioorg Med Chem Lett, 2016)
